Test: Melting of Form A0 in dry N2 (heated to 140° C., cooled to room temperature)
Format: physicochemical
Settings: heated to 140° C. in dry N2 atmosphere, then cooled to room temperature and crushed
Protocol: A. The amorphous form of funapide was generated by melting Form A0 of funapide in a dry N2 atmosphere optionally using the VT stage on the XRPD unit. The sample was heated to 140° C. and then cooled to room temperature and crushed. […] The sample was confirmed to be the amorphous form of funapide by XRPD.

O=C1N(Cc2ccc(C(F)(F)F)o2)c2ccccc2[C@]12COc1cc3c(cc12)OCO3 [Form A0 of funapide]
decomposition on melting: No decomposition was observed

From US10513526B2, “Solid state forms of spiro-oxindole compounds” (Xenon Pharmaceuticals Inc., priority 2016, dated 2019)
